# Source: ChEMBL document CHEMBL1152035, “Rational design of potent carboxylic acid based bisubstrate inhibitors of ras farnesyl protein transferase” (Bioorg Med Chem Lett, 1994)
# Target: Protein farnesyltransferase (Homo sapiens, UniProt P49354+P49356)
# Assay: Inhibition of ras Farnesyltransferase
# Type: protein-complex assay
row,Structure (SMILES),IC50
1,CC(C)=CCC/C(C)=C/CC/C(C)=C/CN[C@@H](CCC(=O)N[C@H](C(=O)N[C@@H](CC(C)C)C(=O)N[C@@H](CO)C(=O)O)C(C)C)C(=O)O,3.4 µM
2,CC(C)=CCC/C(C)=C/CC/C(C)=C/CN[C@H](CCC(=O)N[C@H](C(=O)N[C@@H](CC(C)C)C(=O)N[C@@H](CO)C(=O)O)C(C)C)C(=O)O,14 µM
3,CC(C)=CCC/C(C)=C/CC/C(C)=C/CC(CCCC(=O)N[C@H](C(=O)N[C@@H](CC(C)C)C(=O)N[C@@H](CO)C(=O)O)C(C)C)C(=O)O (some centres undefined),1.2 µM
4,CC(C)=CCC/C(C)=C/CC/C(C)=C/CC(CCC(=O)N[C@H](C(=O)N[C@@H](CC(C)C)C(=O)N[C@@H](CO)C(=O)O)C(C)C)C(=O)NCP(=O)(O)O (some centres undefined),0.15 µM
5,CC(C)=CCC/C(C)=C/CC/C(C)=C/CCCCC(=O)N[C@H](C(=O)N[C@@H](CC(C)C)C(=O)N[C@@H](CO)C(=O)O)C(C)C,> 360 µM
6,CC(C)=CCC/C(C)=C/CC/C(C)=C/CC(C[C@H](NC(=O)OC(C)(C)C)C(=O)N[C@H](C(=O)N[C@@H](CC(C)C)C(=O)N[C@@H](CO)C(=O)O)C(C)C)C(=O)O (some centres undefined),20 µM
7,CC(C)=CCC/C(C)=C/CC/C(C)=C/CC(CCC(=O)N[C@H](C(=O)N[C@@H](CC(C)C)C(=O)N[C@@H](CO)C(=O)O)C(C)C)C(=O)O (some centres undefined),0.9 µM
8,CCOC(=O)C(C/C=C(\C)CC/C=C(\C)CCC=C(C)C)CCC(=O)N[C@H](C(=O)N[C@@H](CC(C)C)C(=O)N[C@@H](CO)C(=O)O)C(C)C (some centres undefined),> 360 µM
9,CC(C)=CCC/C(C)=C/CC/C(C)=C/CNC(=O)C(CCC(=O)N[C@H](C(=O)N[C@@H](CC(C)C)C(=O)N[C@@H](CO)C(=O)O)C(C)C)C(=O)O (some centres undefined),4.4 µM

# Results, then the molecule that gave them:
row,IC50,Structure (SMILES)
1,1.8 µM,CC(C)=CCC/C(C)=C/CC/C(C)=C/CC(CCCCC(=O)N[C@H](C(=O)N[C@@H](CC(C)C)C(=O)N[C@@H](CO)C(=O)O)C(C)C)C(=O)O (some centres undefined)
2,4.5 µM,CC(C)=CCC/C(C)=C/CC/C(C)=C/CC(CC(=O)N[C@H](C(=O)N[C@@H](CC(C)C)C(=O)N[C@@H](CO)C(=O)O)C(C)C)C(=O)O (some centres undefined)
3,10 µM,CCCCCCCCCCCCC(CCC(=O)N[C@H](C(=O)N[C@@H](CC(C)C)C(=O)N[C@@H](CO)C(=O)O)C(C)C)C(=O)O (some centres undefined)
4,0.033 µM,CC(C)=CCC/C(C)=C/CC/C(C)=C/C(=O)N[C@@H](CCC(=O)N[C@H](C(=O)N[C@@H](CC(C)C)C(=O)N[C@@H](CO)C(=O)O)C(C)C)C(=O)O (stereo in doubt; 28 (L))
5,3.4 µM,CC(C)=CCC/C(C)=C/CC/C(C)=C/C(=O)N[C@@H](CCC(=O)N[C@H](C(=O)N[C@@H](CC(C)C)C(=O)N[C@@H](CO)C(=O)O)C(C)C)C(=O)O (stereo in doubt; 29 (D))
